Assays:
[1] = target: T1, glutathione S-transferase (GST)-linked full-length human Syk protein (Homo sapiens, UniProt P43405); test: Syk enzyme assay; format: biochemical; settings: 0.83 nM Syk, time-resolved fluorescence; read-out: IC50 of Syk-inhibitory activity
T1 construct: glutathione S-transferase (GST)-linked full-length human Syk protein; purchased Carna Biosciences; host or cells: Baculovirus expression system
How it was run: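 Phosphotyrosine on a biotin-peptide substrate (0.5 μM) was read by time-resolved fluorescence at 615 and 665 nm with Eu-anti-pTyr antibody and APC-streptavidin after 1 h EDTA stop.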

[2] = test system: THP-1 cells (TNFα secretion on human IgG-coated plate); test: TNFα generation assay; format: cell-based; settings: IFN-γ differentiated THP-1 cells, 7 hours, AlphaLISA, read-out: IC50 of TNFα generation inhibitory activity
How it was run: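 THP-1 cells were differentiated with 10 ng/ml IFN-γ for 2 days, then preincubated with compound for 30 min at room temperature. They were then plated at 5×10^4 cells/well on plates coated with human IgG (10 μg/ml). TNFα secreted over 7 h of culture was quantified by AlphaLISA.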

[3] = test system: mouse thrombocytopenia induced by anti-mouse CD41 antibody; test: Mouse thrombocytopenia model; format: in vivo; settings: Platelet, female BALB/c mice, 50 mg/kg 1 hour before anti-CD41 antibody, blood sampling 4 hours after antibody, read-out: improvement of platelet count compared with the control group
Protocol: Test compounds were tested to examine effects upon mouse thrombocytopenia. Each test compound (50 mg/kg) was administered to 5- to 7-week-old female BALB/c mice (Charles River Laboratories Japan, Inc.). One hour thereafter, an anti-mouse CD41 ([…]) antibody (SCB) (1 μg (200 μl)) was intravenously administered to each mouse so as to induce thrombocytopenia. Four hours after administration of the anti-CD41 antibody, blood sampling from the postcava was performed. The platelet count was determined using an automated hematology analyzer.

[4] = test system: THP-1 cells (phagocytosis of opsonized Escherichia coli); test: Antibody-dependent phagocytosis assay; format: cell-based; settings: Homo sapiens; IFNγ differentiated THP-1 cells, opsonized pHrodo Escherichia coli, 3 hours; read-out: IC50 upon phagocytosis inhibition
How it was run: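 THP-1 cells were differentiated to macrophage-like cells with 10 ng/ml IFNγ for 2 days, then treated with test compound for 30 min at room temperature. pHrodo-labeled E. coli opsonized with anti-E. coli antibody were added for 3 h at 37° C. Phagocytosis by viable (Calcein AM-positive) cells was quantified by imaging.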

| Compound | IC50 [1] [nM] | IC50 [2] [nM] | IC50 [4] [nM] | change in vivo at 50 mg/kg [3] [%] |
| --- | --- | --- | --- | --- |
| Cc1ncc(Nc2nc(N[C@H](c3cccs3)[C@H](C)N)c(F)cc2C(N)=O)cc1-n1nccn1 [Example 2-415, 6-(((1S,2S)-2-amino-1-(thiophen-2-yl)propyl)amino)-5-fluoro-2-((6-methyl-5-(2H-1,2,3-triazol-2-yl)pyridin-3-yl)amino)nicotinamide] | < 10 | 130 to 200 | – | ≥ 50 |
| NC(=O)c1cc(F)c(N[C@@H]2CCCC[C@@H]2N)nc1Nc1cncc(-n2cc(Cl)cn2)c1 [Example 2-483, 6-(((1R,2S)-2-aminocyclohexyl)amino)-2-((5-(4-chloro-1H-pyrazol-1-yl)pyridin-3-yl)amino)-5-fluoronicotinamide] | < 10 | – | – | ≥ 50 |
| Cc1cc(C)n(-c2cncc(Nc3nc(N[C@@H]4CCCC[C@@H]4N)c(F)cc3C(N)=O)c2)n1 [Example 2-473, 6-(((1R,2S)-2-aminocyclohexyl)amino)-2-((5-(3,5-dimethyl-1H-pyrazol-1-yl)pyridin-3-yl)amino)-5-fluoronicotinamide] | 10 to 50 | – | – | ≥ 50 |
| COCCN(C)c1nn(C)c2ccc(Nc3nc(N[C@@H]4CCCC[C@@H]4N)c(F)cc3C(N)=O)cc12 [Example 2-456, 6-(((1R,2S)-2-aminocyclohexyl)amino)-5-fluoro-2-((3-((2-methoxyethyl)(methyl)amino)-1-methyl-1H-indazol-5-yl)amino)nicotinamide] | < 10 | – | – | ≥ 50 |
| COc1ncc(Nc2nc(N[C@H](C3CCC3)[C@H](C)N)c(F)cc2C(N)=O)cc1-n1nccn1 [Example 2-114, 6-(((1R,2S)-2-amino-1-cyclobutylpropyl)amino)-5-fluoro-2-((6-methoxy-5-(2H-1,2,3-triazol-2-yl)pyridin-3-yl)amino)nicotinamide] | < 10 | 130 to 200 | 1000 to 3000 | – |
| CNc1ncc(Nc2nc(N[C@H](C3CCC3)[C@H](C)N)c(F)cc2C(N)=O)cc1F [Example 2-275, 6-(((1R,2S)-2-amino-1-cyclobutylpropyl)amino)-5-fluoro-2-((5-fluoro-6-(methylamino)pyridin-3-yl)amino)nicotinamide] | 10 to 50 | 130 to 200 | 1000 to 3000 | – |
| CCn1ncc2c(Nc3nc(N[C@@H]4CCOC[C@@H]4N)c(F)cc3C(N)=O)cncc21 [Example 2-317, 6-(((3R,4R)-3-aminotetrahydro-2H-pyran-4-yl)amino)-2-((1-ethyl-1H-pyrazolo[3,4-c]pyridin-4-yl)amino)-5-fluoronicotinamide] | < 10 | 65 to 130 | 1000 to 3000 | – |
| CC(C)C[C@@H](Nc1nc(Nc2ccnc(N3CCOCC3)c2F)c(C(N)=O)cc1F)[C@H](C)N [Example 2-235, 6-(((2S,3R)-2-amino-5-methylhexan-3-yl)amino)-5-fluoro-2-((3-fluoro-2-morpholinopyridin-4-yl)amino)nicotinamide] | < 10 | 65 to 130 | < 1000 | – |
| COc1ncc(Nc2nc(N[C@H](CC(C)C)[C@H](C)N)c(F)cc2C(N)=O)cc1F [Example 2-66, 6-(((2S,3R)-2-amino-5-methylhexan-3-yl)amino)-5-fluoro-2-((5-fluoro-6-methoxypyridin-3-yl)amino)nicotinamide] | 10 to 50 | 130 to 200 | < 1000 | – |
| Cc1cncc(Nc2nc(N[C@@H]3CCOC[C@@H]3N)c(F)cc2C(N)=O)c1 [Example 2-218, 6-(((3R,4R)-3-aminotetrahydro-2H-pyran-4-yl)amino)-5-fluoro-2-((5-methylpyridin-3-yl)amino)nicotinamide] | 10 to 50 | 65 to 130 | 1000 to 3000 | – |
| Cc1cccc(Nc2nc(N[C@H](C3CC3)[C@H](C)N)c(F)cc2C(N)=O)c1 [Example 2-44, 6-(((1R,2S)-2-amino-1-cyclopropylpropyl)amino)-5-fluoro-2-(m-tolylamino)nicotinamide] | < 10 | 65 to 130 | < 1000 | – |
| CC[C@H](N)[C@@H](C)Nc1nc(Nc2cnc(C)c(F)c2)c(C(N)=O)cc1F [Example 2-270, 6-(((2R,3S)-3-aminopentan-2-yl)amino)-5-fluoro-2-((5-fluoro-6-methylpyridin-3-yl)amino)nicotinamide] | 10 to 50 | 65 to 130 | 1000 to 3000 | – |
| Cc1ncc(Nc2nc(N[C@H](CC(C)C)[C@H](C)N)c(F)cc2C(N)=O)cc1F [Example 2-224, 6-(((2S,3R)-2-amino-5-methylhexan-3-yl)amino)-5-fluoro-2-((5-fluoro-6-methylpyridin-3-yl)amino)nicotinamide] | < 10 | 130 to 200 | 1000 to 3000 | – |
| CCn1ncc2c(Nc3nc(N[C@@H]4CCCC[C@@H]4N)c(F)cc3C(N)=O)cncc21 [Example 2-316] | < 10 | 65 to 130 | < 1000 | – |
| Cc1ncc(Nc2nc(N[C@H](C3CCC3)[C@H](C)N)c(F)cc2C(N)=O)cc1F [Example 2-221, 6-(((1R,2S)-2-amino-1-cyclobutylpropyl)amino)-5-fluoro-2-((5-fluoro-6-methylpyridin-3-yl)amino)nicotinamide] | < 10 | 130 to 200 | < 1000 | – |

The next lines start with results.

| IC50 [1] [nM] | IC50 [2] [nM] | IC50 [4] [nM] | Compound | change in vivo at 50 mg/kg [3] [%] |
| --- | --- | --- | --- | --- |
| 10 to 50 | 130 to 200 | – | CC[C@@H](Nc1nc(Nc2cnc3c(c2)c(OC)nn3C)c(C(N)=O)cc1F)[C@H](C)N [Example 2-251, 6-(((2S,3R)-2-aminopentan-3-yl)amino)-5-fluoro-2-((3-methoxy-1-methyl-1H-pyrazolo[3,4-b]pyridin-5-yl)amino)nicotinamide] | ≥ 50 |
| < 10 | 65 to 130 | < 1000 | NC(=O)c1cc(F)c(N[C@@H]2CCOC[C@@H]2N)nc1Nc1cccc2c1cnn2CC(F)F [Example 2-332, 6-(((3R,4R)-3-aminotetrahydro-2H-pyran-4-yl)amino)-2-((1-(2,2-difluoroethyl)-1H-indazol-4-yl)amino)-5-fluoronicotinamide] | – |
| < 10 | 130 to 200 | < 1000 | CCn1ncc2c(Nc3nc(N[C@H](C4CCC4)[C@H](C)N)c(F)cc3C(N)=O)cccc21 [Example 2-98, 6-(((1R,2S)-2-amino-1-cyclobutylpropyl)amino)-2-((1-ethyl-1H-indazol-4-yl)amino)-5-fluoronicotinamide] | – |
| 10 to 50 | 130 to 200 | 1000 to 3000 | COCCn1nc(C)c2cc(Nc3nc(N[C@H](COC)[C@H](C)N)c(F)cc3C(N)=O)ccc21 [Example 2-135, 6-(((2S,3S)-3-amino-1-methoxybutan-2-yl)amino)-5-fluoro-2-((1-(2-methoxyethyl)-3-methyl-1H-indazol-5-yl)amino)nicotinamide] | – |
| < 10 | 65 to 130 | < 1000 | CCn1ncc2c(Nc3nc(N[C@H](C4CC4)[C@H](C)N)c(F)cc3C(N)=O)cncc21 [Example 2-320, 6-(((1R,2S)-2-amino-1-cyclopropylpropyl)amino)-2-((1-ethyl-1H-pyrazolo[3,4-c]pyridin-4-yl)amino)-5-fluoronicotinamide] | – |
| < 10 | 130 to 200 | < 1000 | CC[C@@H](Nc1nc(Nc2ccc3c(c2)c(OC)nn3CC)c(C(N)=O)cc1F)[C@H](C)N [Example 2-52, 6-(((2S,3R)-2-aminopentan-3-yl)amino)-2-((1-ethyl-3-methoxy-1H-indazol-5-yl)amino)-5-fluoronicotinamide] | – |
| < 10 | 65 to 130 | < 1000 | CC[C@@H](Nc1nc(Nc2cccc3c2cnn3CC(F)F)c(C(N)=O)cc1F)[C@H](C)N [Example 2-23, 6-(((2S,3R)-2-aminopentan-3-yl)amino)-2-((1-(2,2-difluoroethyl)-1H-indazol-4-yl)amino)-5-fluoronicotinamide] | – |
| < 10 | 130 to 200 | < 1000 | CC[C@H](N)[C@@H](C)Nc1nc(Nc2cncc3c2cnn3CC)c(C(N)=O)cc1F [Example 2-325, 6-(((2R,3S)-3-aminopentan-2-yl)amino)-2-((1-ethyl-1H-pyrazolo[3,4-c]pyridin-4-yl)amino)-5-fluoronicotinamide] | – |
| < 10 | 65 to 130 | < 1000 | CC[C@@H](Nc1nc(Nc2cc(F)cc3c2cnn3CCOC)c(C(N)=O)cc1F)[C@H](C)N [Example 2-376, 6-(((2S,3R)-2-aminopentan-3-yl)amino)-5-fluoro-2-((6-fluoro-1-(2-methoxyethyl)-1H-indazol-4-yl)amino)nicotinamide] | – |

— patent US9051310B2, “Nicotinamide derivative or salt thereof” (FUJIFILM Corporation, priority 2011, dated 2015)
